Results from ChEMBL document CHEMBL1157053, “Pharmacophore-based 3D QSAR studies on a series of high affinity 5-HT1A receptor ligands” (Eur J Med Chem, 2010).

target: T1, 5-hydroxytryptamine receptor 1A (Homo sapiens, UniProt P08908); experiment: Antagonist activity at 5HT1A; format: functional
T1 sequence (P08908 whole entry): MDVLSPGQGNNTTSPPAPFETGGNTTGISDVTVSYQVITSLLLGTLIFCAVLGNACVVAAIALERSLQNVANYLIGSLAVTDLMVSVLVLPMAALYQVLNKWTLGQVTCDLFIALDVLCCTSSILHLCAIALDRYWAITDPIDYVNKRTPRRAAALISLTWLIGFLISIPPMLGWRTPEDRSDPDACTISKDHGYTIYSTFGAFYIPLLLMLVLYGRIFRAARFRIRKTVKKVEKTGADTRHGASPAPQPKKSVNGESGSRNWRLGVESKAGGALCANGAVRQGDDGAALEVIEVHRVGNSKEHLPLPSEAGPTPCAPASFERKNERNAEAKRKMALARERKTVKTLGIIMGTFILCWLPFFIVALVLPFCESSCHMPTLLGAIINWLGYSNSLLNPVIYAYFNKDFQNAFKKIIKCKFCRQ

SMILES | Ki [nM]
COc1ccc(OC(CCN2CCN(c3ccccc3OC)CC2)c2ccccc2)cc1 (centres undefined) | 89.1
OC(CCN1CCN(c2ccc3ncccc3c2)CC1)c1csc2ccccc12 (centres undefined) | 550
COc1ccccc1N1CCN(CCC(O)c2ccc([N+](=O)[O-])cc2)CC1 (centres undefined) | 10
COc1ccccc1N1CCN(CC/C(=N\O)c2csc3ccccc23)CC1 | 794
OC(CCN1CCN(c2ccc(F)cc2)CC1)c1ccccc1 (centres undefined) | 145
COc1ccccc1N1CCN(CCC(=O)c2ccsc2)CC1 | 60.3
Oc1ccccc1N1CCN(CCC(O)c2ccc3ccccc3c2)CC1 (centres undefined) | 191
COc1ccccc1N1CCN(CCC(Oc2cccc3ccccc23)c2ccsc2)CC1 (centres undefined) | 182
CC1CN(CCC(O)c2csc3ccc(F)cc23)CCN1c1cccc2c1OCO2 (centres undefined) | 9.33
OC(CCN1CCN(c2cccc3ncccc23)CC1)c1csc2ccccc12 (centres undefined) | 37.2
Cc1ccc2cccc(N3CCN(CCC(O)c4csc5ccc(F)cc45)CC3)c2n1 (centres undefined) | 2.51
COc1ccccc1N1CCN(CCC(Oc2ccc3c(c2)OCO3)c2ccsc2)CC1 (centres undefined) | 55
OC(CCN1CCN(c2ccccc2Cl)CC1)c1ccsc1 (centres undefined) | 5010
COc1ccccc1N1CCN(CCC(=O)c2cc(C)sc2C)CC1 | 5010
OC(CCN1CCN(c2cccc3c2OCCO3)CC1)c1csc2ccc(F)cc12 (centres undefined) | 6.03
COc1cc(F)ccc1N1CCN(CCC(=O)c2cc(C)sc2C)CC1 | 12.9
Cc1ccc2cccc(N3CCN(CCC(O)c4csc5ccccc45)CC3)c2n1 (centres undefined) | 10.2

Results, then the compound that gave them:

Ki [nM] | SMILES
5010 | Cc1cc(C(=O)CCN2CCN(c3cccc4ccccc34)CC2)c(C)s1
550 | OC(CCN1CCN(c2cccc3cccnc23)CC1)c1csc2ccccc12 (centres undefined)
851 | COc1ccccc1N1CCN(CCC(O)c2ccc(-c3ccccc3)cc2)CC1 (centres undefined)
89.1 | Cc1cc(C(O)CCN2CCN(c3ccccc3O)CC2)c(C)s1 (centres undefined)
219 | COc1ccccc1N1CCN(CCC(Oc2cccc3ccccc23)c2cccs2)CC1 (centres undefined)
66.1 | OC(CCN1CCN(c2cccc3ccccc23)CC1)c1csc2ccccc12 (centres undefined)
20 | COc1ccccc1N1CCN(CCC(Oc2ccc3c(c2)OCO3)c2ccccc2)CC1 (centres undefined)
50.1 | COc1ccccc1N1CCN(CCC(=O)c2ccc([N+](=O)[O-])cc2)CC1
372 | OC(CCN1CCN(c2ncccn2)CC1)c1ccccc1 (centres undefined)
1580 | OC(CCN1CCN(c2ccc3sccc3c2)CC1)c1csc2ccccc12 (centres undefined)
1.91 | OC(CCN1CCN(c2cccc3c2OCCCO3)CC1)c1csc2ccccc12 (centres undefined)
5010 | FC(F)(F)c1ccc(OC(CCN2CCN(c3ccc(Cl)cc3)CC2)c2ccccc2)cc1 (centres undefined)
2.69 | OC(CCN1CCN(c2cccc3cccnc23)CC1)c1csc2ccc(F)cc12 (centres undefined)
1000 | O=C(CCN1CCN(c2ccccc2O)CC1)c1ccc2ccccc2c1
372 | COc1ccccc1N1CCN(CCC(O)c2csc(C)c2)CC1 (centres undefined)
3.02 | OC(CCN1CCN(c2cccc3c2OCCCO3)CC1)c1csc2ccc(F)cc12 (centres undefined)
1000 | OC(CCN1CCN(c2cnc3ccccc3c2)CC1)c1csc2ccccc12 (centres undefined)
